Laboratory results: patent US7781644B2, “Arabidosis AtLEJ1 gene involved in inhibiting biosynthesis of jasmonic acid and ethylene and method for producing male-sterile plant using the same” (Korea University Industry and Academy Cooperation Foundation, priority 2006, dated 2010)

How the values were obtained:
[1] = test system: endothecium cells of stamens of the AtLEJ1-overexpressed plant; assay: Phloroglucinol staining of paraffin sections for lignification of endothecium cells of stamens after hormone treatment; type: in vivo, Arabidopsis
Source text: In order to examine the developmental process of anthers at the cell level, flowers of the wild-type and the AtLEJ1-overexpressed plant were dipped in a fixing solution, dehydrated with a series of ethanol solutions, and embedded in paraffin (Paraplast), followed by microtome section at 8 μm. The sections were stained with 2% phloroglucinol to visualize the lignification of the endothecium cells, known to play an important role in anther dehiscence, and were washed with 9N HCl.
(§1) The flowers obtained day 2 after treatment with jasmonic acid were embedded in paraffin (Paraplast) and then stained with phloroglucinol for microscopic observation.

[2] = test system: male-sterile AtLEJ1-overexpressed plant; assay: Restoration of male-sterile AtLEJ1-overexpressed plant to fertile phenotype by hormone treatment of flower bud cluster; type: in vivo, Arabidopsis
Experimental: First, a flower bud cluster of the AtLEJ1-overexpressed plant was treated with 500 μM jasmonic acid. For a negative control, non-treatment or water alone, was provided.
as §1

Row | Compound | lignification of endothecium cells of stamens (phloroglucinol staining) ([1]; 500 μM jasmonic acid, flowers obtained day 2 after treatment (FIG. 11)) | restoration to a fertile phenotype ([2]; 500 μM jasmonic acid on flower bud cluster, one week after treatment, control remained sterile (FIG. 10)) | anther dehiscence (microscopic observation of treated flowers) ([2]; 500 μM jasmonic acid, day 2 after treatment) | lignification of endothecium cells of stamens ([1]; ACC-treated plant, 50 mM or 500 mM (FIG. 13)) | restoration to a fertile phenotype ([2]; treatment with 50 mM ACC (FIG. 12)) | restoration to a fertile phenotype ([2]; treatment with 500 mM ACC (FIG. 12))
1 | CC/C=C\C[C@H]1C(=O)CC[C@@H]1CC(=O)O [jasmonic acid] | lignified | at least partly, restored to a fertile phenotype | observed to enter anther dehiscence | – | – | –
2 | NC1(C(=O)O)CC1 [ACC, 1-aminocyclopropane-1-carboxylic acid] | – | – | – | Lignification was also found | restored to a fertile phenotype | restored to a fertile phenotype
